Our source for the half-life values is PubChem BioAssay AID1508591.

SMILES strings stand for the structures.

The conditions of the series: rat; liver microsomes; pH 7.4; 15.0 min; 1.0 µM. A general note: Microsomes from liver hold many membrane-bound enzymes, among them those of drug oxidation.
As a reminder, the half-life is the time needed for the level to fall by half in the phase considered. Read a high half-life as slow loss. As for `CCOC(=O)Nc1ccc(NCc2ccc(F)cc2)nc1N`, the half-life was > 30 min.
The same measure for `Cn1c(=O)c2cc(C(=O)NCCCN3CCN(c4ccccc4F)CC3)sc2c2ccccc21`: 1.97 min; for `CN(C(=O)CSc1nc2ccc(NC(=O)c3ccc(F)cc3)cc2s1)c1ccccc1`: 2.04 min.
In the case of `O=C([C@H](Cc1ccc(O[S+](=O)([O-])c2cccc3cnccc23)cc1)N[S+](=O)([O-])c1cccc2cnccc12)N1CCN(Cc2ccccc2)CC1`, the half-life is 16 min.
The same measure for `Fc1ccc(CNc2nc(-c3ccncc3)nc3ccccc23)cc1F`: 11 min; for `CCn1nnnc1Sc1ncnc2scc(-c3ccc(C)cc3)c12`: 1.4 min; for `Oc1ccc(CNc2cccc(F)c2)c2cccnc12`: 4.1 min.
The same measure for `CC(=O)c1c(C)[nH]c(C(=O)Nc2cccc([S+](=O)([O-])Nc3ccccc3)c2)c1C`: 4.2 min; for `Cc1ccc(C(=O)NC2CCN(c3cnn(CC4CC4)c(=O)c3)CC2)cc1C`: 16.3 min.
Molecule `COc1cc(C(=S)N2CCN(CCO)CC2)ccc1OCc1ccc(C)cc1` showed a half-life of 3.2 min.
With `COc1ccccc1CN1CCNc2cc(Nc3ccccc3)ncc2C1`, the half-life stood at 1.21 min.
As for `COc1cc2c(cc1OC)C(C[C@H]1CN(S(=O)(=O)c3cccc(C#N)c3)CC[C@H]1CC(=O)O)=NCC2`, the figure is > 30 min; as for `CSc1nc(N)cc(Oc2ccc(-c3nc(Nc4cccc(C(F)(F)F)c4)n[nH]3)cc2)n1`, 21.2 min; as for `Cc1ccc(-c2cc(C(=O)Nc3ccc(S(=O)(=O)N(C)Cc4nccs4)cc3)c3ccccc3n2)cc1C`, 4.1 min.
As for `NC(=O)C1CCN(c2nc(-c3cccc(C(F)(F)F)c3)cs2)CC1`, the figure is 1.99 min.
With `Cc1nn2c(c1-c1ccccc1-c1ccccc1)N(Cc1ccc(O)cc1)CCC2`, the half-life was 1.97 min.
`O=C(NC1CCCN(c2cc(-c3ccc(F)cc3)[nH]n2)C1)c1ccc2ncccc2c1` (stereo not given) yielded a half-life of 16.2 min. Compared with the last molecule, the half-life is about 8.2-fold higher.
For `O=C(Nc1ccc2oc(-c3ccccc3F)nc2c1)c1ccc([N+](=O)[O-])o1`, the half-life was > 30 min.
As to `CC(C)(C)CC(C)(C)c1ccc(O)cc1`, the half-life was 5.8 min.
The same measure for `Cc1ccc(/C=C/c2nc3ccccc3n2S(=O)(=O)c2ccc(Br)cc2)cc1`: 28.6 min.
The same measure for `COc1ccc(Nc2cc(C)nc(-n3nc(C)cc3C)n2)cc1Cl`: 17.7 min; for `N=c1c2c(ccn1CCc1ccccc1)Oc1ccc3ccccc3c1C2c1ccccc1` (stereo not given): > 30 min.
The same measure for `NC(=O)C1CCN(c2nc(-c3ccccc3-c3ccccc3)cs2)CC1`: 2.45 min.
`O=C1CCCC2=C1C(c1ccccc1Br)N=C(Nc1nc3ccccc3o1)N2` (stereo not given) yielded a half-life of 9.6 min.
The same measure for `Fc1ccc(Nc2nc(-c3ccncc3Cl)nc3ccccc23)cc1F`: 19 min; for `O=C(Nc1ncc(-c2ccccc2)s1)c1ccc(-c2cccc([N+](=O)[O-])c2)o1`: > 30 min; for `O=C(O)CNC(=O)c1c(O)c2ccccc2n(Cc2ccccc2)c1=O`: 23.6 min.
The same measure for `O=C(Nc1ccccc1)C1CCN(c2ncc(-c3ccc4c(c3)OCCCO4)s2)CC1`: 1.44 min; for `CC(Nc1ccc([S+](=O)([O-])Nc2nccs2)cc1)c1ccccc1` (stereo not given): 13 min; for `CCCc1cc(C)[nH]c(=O)c1CNC(=O)c1cc(-c2ccc(N3CCN(C(C)C)CC3)nc2)cc2c1cnn2C(C)C`: 25 min.
For `C=C[C@]1(C)C[C@@H](OC(=O)CSC(C)(C)CNC(=O)[C@H](N)C(C)C)[C@]2(C)[C@H](C)CC[C@]3(CCC(=O)[C@H]32)[C@@H](C)[C@@H]1O`, the half-life stood at 2.06 min.
`O=C(CCCc1ccc2cccnc2n1)NCc1cc(-c2ccc(F)c(C(F)(F)F)c2)no1`: the half-life turned out to be 9.4 min.
Take `O=C(Nc1ncc([S+](=O)([O-])N2CCOCC2)s1)c1cccc(Br)c1`: the half-life stood at 23 min.
The same measure for `FC(F)(F)c1ccccc1-c1nc(NCc2cccc(Cl)c2)c2ccccc2n1`: 2.97 min; for `Cc1ccc(-c2c(CN3CCN(c4cccc(C(F)(F)F)c4)CC3)csc2C)cc1`: 18.5 min.
